Measured values reported in ChEMBL document CHEMBL5149969, “Amyloid-β and tau aggregation dual-inhibitors: A synthetic and structure-activity relationship focused review” (Eur J Med Chem, 2021).

target: T1, Microtubule-associated protein tau (Homo sapiens, UniProt P10636); test: Inhibition of tau aggregation (unknown origin) at 20 uM relative to control
T1 sequence (P10636 whole entry): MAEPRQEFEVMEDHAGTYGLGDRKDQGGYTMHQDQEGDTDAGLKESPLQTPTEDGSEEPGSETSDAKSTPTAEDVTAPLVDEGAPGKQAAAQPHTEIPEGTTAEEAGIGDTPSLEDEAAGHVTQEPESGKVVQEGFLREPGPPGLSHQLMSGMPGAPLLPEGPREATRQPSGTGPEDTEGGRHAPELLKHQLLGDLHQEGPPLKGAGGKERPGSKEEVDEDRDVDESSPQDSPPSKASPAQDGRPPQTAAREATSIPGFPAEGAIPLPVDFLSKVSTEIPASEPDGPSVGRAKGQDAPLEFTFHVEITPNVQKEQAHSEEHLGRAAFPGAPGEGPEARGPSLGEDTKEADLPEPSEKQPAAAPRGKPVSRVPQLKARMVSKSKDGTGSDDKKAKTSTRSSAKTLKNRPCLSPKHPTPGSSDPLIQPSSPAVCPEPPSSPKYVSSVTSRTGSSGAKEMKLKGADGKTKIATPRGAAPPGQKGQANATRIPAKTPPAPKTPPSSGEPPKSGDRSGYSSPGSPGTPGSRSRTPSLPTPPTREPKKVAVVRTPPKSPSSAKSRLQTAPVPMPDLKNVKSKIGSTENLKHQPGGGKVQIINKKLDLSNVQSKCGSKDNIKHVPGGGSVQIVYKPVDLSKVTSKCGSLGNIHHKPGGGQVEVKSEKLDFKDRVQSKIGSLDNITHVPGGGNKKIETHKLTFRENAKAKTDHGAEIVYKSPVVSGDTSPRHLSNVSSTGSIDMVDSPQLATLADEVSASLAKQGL

Going from `C[n+]1c2c(c(N)c3ccccc31)C(=O)/C(=C/c1cccc3ccccc13)CC2` to `C[n+]1c2c(c(N)c3ccccc31)C(=O)/C(=C/c1ccccc1)CC2`, the inhibition falls from 102% to 71.2%.

First: C[n+]1c2c(c(N)c3ccccc31)C(=O)/C(=C/c1cccc(Cl)c1)CC2
Second: C[n+]1c2c(c(N)c3ccccc31)C(=O)/C(=C/c1cccc(F)c1)CC2
The inhibition of the first is higher: 98.3% for the first, 86.3% for the second.

Going from `C[n+]1c2c(c(N)c3ccccc31)C(=O)/C(=C/c1cccs1)CC2` to `C[n+]1c2c(c(N)c3ccccc31)C(=O)/C(=C/c1cccc([N+](=O)[O-])c1)CC2`, the inhibition rises from 95.3% to 98.2%.

Compared with `Nc1c2c(nc3ccccc13)CC/C(=C\c1ccccc1)C2=O`, `CN(C)c1ccc2nc3ccc(=[N+](C)C)cc-3sc2c1` is higher in inhibition: 18.7% for the first, 80.1% for the second.

target: T2, Amyloid-beta precursor protein (Homo sapiens, UniProt P05067); test: Inhibition of amyloid beta 42 (unknown origin) expressed in Escherichia coli BL21 (DE3) at 10 uM relative to control
T2 sequence (P05067 whole entry): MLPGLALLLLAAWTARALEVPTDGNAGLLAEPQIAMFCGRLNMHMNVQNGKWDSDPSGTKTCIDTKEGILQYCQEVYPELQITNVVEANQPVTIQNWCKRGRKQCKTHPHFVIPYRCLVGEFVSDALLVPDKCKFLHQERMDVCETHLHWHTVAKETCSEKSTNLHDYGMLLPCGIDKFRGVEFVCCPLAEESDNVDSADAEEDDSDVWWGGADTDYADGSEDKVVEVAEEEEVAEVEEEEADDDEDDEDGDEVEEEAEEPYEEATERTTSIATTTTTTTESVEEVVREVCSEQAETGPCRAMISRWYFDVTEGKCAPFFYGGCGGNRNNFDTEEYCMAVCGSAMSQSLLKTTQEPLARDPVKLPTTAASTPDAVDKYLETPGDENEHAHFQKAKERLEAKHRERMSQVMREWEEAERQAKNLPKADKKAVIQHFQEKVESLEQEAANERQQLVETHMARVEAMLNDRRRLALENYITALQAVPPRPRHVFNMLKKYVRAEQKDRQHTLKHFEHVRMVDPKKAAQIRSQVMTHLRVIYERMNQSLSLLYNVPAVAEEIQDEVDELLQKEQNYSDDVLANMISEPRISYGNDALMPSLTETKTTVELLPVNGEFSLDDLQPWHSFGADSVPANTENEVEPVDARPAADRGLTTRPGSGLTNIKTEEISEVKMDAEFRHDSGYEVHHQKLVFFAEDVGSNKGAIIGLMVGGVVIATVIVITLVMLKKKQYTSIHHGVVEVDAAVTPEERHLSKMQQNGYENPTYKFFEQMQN

First: Cc1c(OCc2ccccc2)cccc1N1CCN(CCCCNC2CCN(Cc3ccccc3)CC2)CC1
Second: Cc1c(OCc2ccccc2)cccc1N1CCN(CCCNC2CCN(Cc3ccccc3)CC2)CC1
The inhibition of the first is higher: 62% for the first, 55.7% for the second.

Going from `c1ccc(Cn2ccc3c(N4CCN(CCCCNc5c6c(nc7ccccc57)CCCC6)CC4)cccc32)cc1` to `Cc1c(OCc2ccccc2)cccc1N1CCN(CCCCCCNc2c3c(nc4ccccc24)CCCC3)CC1`, the inhibition rises from 57.7% to 66.9%.

Going from `Cc1c(OCc2ccccc2)cccc1N1CCN(CCCCCCCNc2c3c(nc4ccccc24)CCCC3)CC1` to `Cc1c(OCc2ccccc2)cccc1N1CCN(CCCCCCCCNc2c3c(nc4ccccc24)CCCC3)CC1`, the inhibition falls from 67.4% to 66.7%.

Compared with `Cc1c(OCc2ccccc2)cccc1N1CCN(CCNC2CCN(Cc3ccccc3)CC2)CC1`, `Cc1c(OCc2ccccc2)cccc1N1CCN(CCCNCc2ccccc2)CC1` is higher in inhibition: 54.1% for the first, 64.9% for the second.

Going from `Cc1c(OCc2ccccc2)cccc1N1CCN(CCCCCCNCc2ccccc2)CC1` to `Cc1c(OCc2ccccc2)cccc1N1CCN(CCNc2c3c(nc4ccccc24)CCCC3)CC1`, the inhibition falls from 64.2% to 55.7%.

Compared with `O=S(=O)(c1ccccc1)n1ccc2c(N3CCN(CCN4CCN(Cc5cccc6c5ccn6Cc5ccccc5)CC4)CC3)cccc21`, `O=S(=O)(c1ccccc1)n1ccc2c(N3CCN(CCCCCCNC4CCN(Cc5ccccc5)CC4)CC3)cccc21` is lower in inhibition: 64.8% for the first, 61.8% for the second.

target: T1, Microtubule-associated protein tau; test: Inhibition of Tau (unknown origin) expressed in Escherichia coli BL21 (DE3) at 10 uM relative to control

Going from `Cc1c(OCc2ccccc2)cccc1N1CCN(CCCCNC2CCN(Cc3ccccc3)CC2)CC1` to `Cc1c(OCc2ccccc2)cccc1N1CCN(CCCNC2CCN(Cc3ccccc3)CC2)CC1`, the inhibition falls from 62.8% to 60.2%.

First: c1ccc(Cn2ccc3c(N4CCN(CCCCNc5c6c(nc7ccccc57)CCCC6)CC4)cccc32)cc1
Second: Cc1c(OCc2ccccc2)cccc1N1CCN(CCCCCCNc2c3c(nc4ccccc24)CCCC3)CC1
The inhibition of the first is lower: 62.9% for the first, 64% for the second.

First: Cc1c(OCc2ccccc2)cccc1N1CCN(CCCCCCCNc2c3c(nc4ccccc24)CCCC3)CC1
Second: Cc1c(OCc2ccccc2)cccc1N1CCN(CCCCCCCCNc2c3c(nc4ccccc24)CCCC3)CC1
The inhibition of the first is higher: 70.3% for the first, 60.2% for the second.

First: Cc1c(OCc2ccccc2)cccc1N1CCN(CCNC2CCN(Cc3ccccc3)CC2)CC1
Second: Cc1c(OCc2ccccc2)cccc1N1CCN(CCCNCc2ccccc2)CC1
The inhibition of the first is lower: 57.3% for the first, 64.5% for the second.

Compared with `Cc1c(OCc2ccccc2)cccc1N1CCN(CCCCCCNCc2ccccc2)CC1`, `Cc1c(OCc2ccccc2)cccc1N1CCN(CCNc2c3c(nc4ccccc24)CCCC3)CC1` is lower in inhibition: 64.8% for the first, 58.6% for the second.

Compared with `O=S(=O)(c1ccccc1)n1ccc2c(N3CCN(CCN4CCN(Cc5cccc6c5ccn6Cc5ccccc5)CC4)CC3)cccc21`, `O=S(=O)(c1ccccc1)n1ccc2c(N3CCN(CCCCCCNC4CCN(Cc5ccccc5)CC4)CC3)cccc21` is lower in inhibition: 54.6% for the first, 52.7% for the second.

target: T2, Amyloid-beta precursor protein; test: Inhibition of amyloid beta 42 (unknown origin) at 20 uM relative to control

In the case of `C[n+]1c2c(c(N)c3ccccc31)C(=O)/C(=C/c1cccc([N+](=O)[O-])c1)CC2`, the inhibition is reported as 86.4%.

target: T1, Microtubule-associated protein tau; test: Inhibition of tau (unknown origin) transfected in human H4 cells incubated for 20 to 24 hrs by LPECL assay; type: cell-based

Going from `COc1cc(/C=C/c2cc(/C=C/c3ccc(O)c(OC)c3)n(Cc3ccccc3)n2)ccc1O` to `COc1cc(/C=C/c2cc(/C=C/c3ccc(O)c(OC)c3)n(-c3ccccc3)n2)ccc1O`, the IC50 rises from 35 µM to 103 µM (2.9-fold). The first is the more potent here.

Compared with `COc1cc(/C=C/c2cc(/C=C/c3ccc(O)c(OC)c3)n(-c3ccc(C)cc3)n2)ccc1O`, `COc1cc(/C=C/c2cc(/C=C/c3ccc(O)c(OC)c3)n(-c3ccc(C(C)C)cc3)n2)ccc1O` is 1.9-fold lower in IC50: 35 µM for the first, 18 µM for the second. The second is the more potent here.

First: COc1cc(/C=C/c2cc(/C=C/c3ccc(O)c(OC)c3)n(-c3cccc([N+](=O)[O-])c3)n2)ccc1O
Second: COc1cc(/C=C/c2cc(/C=C/c3ccc(O)c(OC)c3)n(-c3ccc([N+](=O)[O-])cc3)n2)ccc1O
The IC50 of the first is 4.2-fold higher: 5 µM for the first, 1.2 µM for the second.

Going from `COc1cc(/C=C/c2cc(/C=C/c3ccc(O)c(OC)c3)n(CCO)n2)ccc1O` to `COc1cc(/C=C/c2cc(/C=C/c3ccc(O)c(OC)c3)n(C)n2)ccc1O`, the IC50 falls from 69 µM to 13 µM (5.3-fold).

`COc1cc(/C=C/c2cc(/C=C/c3ccc(OCC(=O)O)c(OC)c3)on2)ccc1OCC(=O)O` and `COc1cc(/C=C/c2cc(/C=C/c3ccc(OCC(=O)OC(C)(C)C)c(OC)c3)on2)ccc1OCC(=O)OC(C)(C)C` cannot be ordered by IC50: > 200 µM for the first, > 200 µM for the second.

Going from `COc1cc(/C=C/c2cc(/C=C/c3ccc(O)c(OC)c3)on2)ccc1O` to `COc1cc(/C=C/c2cc(/C=C/c3ccc(O)c(OC)c3)[nH]n2)ccc1O` [CURCUMIN PYRAZOLE], the IC50 falls from > 200 µM to 34 µM. The second is the more potent here.

First: COc1cc(/C=C/c2cc(/C=C/c3ccc(O)c(OC)c3)n(-c3ccc(Cl)nn3)n2)ccc1O
Second: COc1cc(/C=C/c2cc(/C=C/c3ccc(O)c(OC)c3)n(-c3cc(Cl)cc(Cl)c3)n2)ccc1O
The IC50 of the first is 5.4-fold higher: 54 µM for the first, 10 µM for the second. The second is the more potent here.

target: T1, Microtubule-associated protein tau; test: Inhibition of tau depolymerization (unknown origin) transfected in H4 cells incubated for 20 to 24 hrs by LPECL assay; type: cell-based

`COc1cc(/C=C/c2cc(/C=C/c3ccc(O)c(OC)c3)n(Cc3ccccc3)n2)ccc1O` and `COc1cc(/C=C/c2cc(/C=C/c3ccc(O)c(OC)c3)n(-c3ccccc3)n2)ccc1O` are the same in DC50: 73 µM for the first, 73 µM for the second.

Compared with `COc1cc(/C=C/c2cc(/C=C/c3ccc(O)c(OC)c3)n(-c3ccc(C)cc3)n2)ccc1O`, `COc1cc(/C=C/c2cc(/C=C/c3ccc(O)c(OC)c3)n(-c3ccc(C(C)C)cc3)n2)ccc1O` is lower in DC50: > 200 µM for the first, 190 µM for the second.

Going from `COc1cc(/C=C/c2cc(/C=C/c3ccc(O)c(OC)c3)n(-c3cccc([N+](=O)[O-])c3)n2)ccc1O` to `COc1cc(/C=C/c2cc(/C=C/c3ccc(O)c(OC)c3)n(-c3ccc([N+](=O)[O-])cc3)n2)ccc1O`, the DC50 falls from 4 µM to 1.1 µM (3.6-fold).

First: COc1cc(/C=C/c2cc(/C=C/c3ccc(O)c(OC)c3)n(CCO)n2)ccc1O
Second: COc1cc(/C=C/c2cc(/C=C/c3ccc(O)c(OC)c3)n(C)n2)ccc1O
The DC50 of the first is 8.1-fold higher: 65 µM for the first, 8 µM for the second.

`COc1cc(/C=C/c2cc(/C=C/c3ccc(OCC(=O)O)c(OC)c3)on2)ccc1OCC(=O)O` and `COc1cc(/C=C/c2cc(/C=C/c3ccc(OCC(=O)OC(C)(C)C)c(OC)c3)on2)ccc1OCC(=O)OC(C)(C)C` cannot be ordered by DC50: > 200 µM for the first, > 200 µM for the second.

Compared with `COc1cc(/C=C/c2cc(/C=C/c3ccc(O)c(OC)c3)on2)ccc1O`, `COc1cc(/C=C/c2cc(/C=C/c3ccc(O)c(OC)c3)[nH]n2)ccc1O` [CURCUMIN PYRAZOLE] is lower in DC50: > 200 µM for the first, 17 µM for the second.

Compared with `COc1cc(/C=C/c2cc(/C=C/c3ccc(O)c(OC)c3)n(-c3ccc(Cl)nn3)n2)ccc1O`, `COc1cc(/C=C/c2cc(/C=C/c3ccc(O)c(OC)c3)n(-c3cc(Cl)cc(Cl)c3)n2)ccc1O` is higher in DC50: 46 µM for the first, > 200 µM for the second.

tested on: not listed separately; test: Inhibition of amyloid beta 38 secretion transfected in human H4 cells incubated for 20 to 24 hrs by LPECL assay; type: cell-based

`COc1cc(/C=C/c2cc(/C=C/c3ccc(O)c(OC)c3)n(Cc3ccccc3)n2)ccc1O` and `COc1cc(/C=C/c2cc(/C=C/c3ccc(O)c(OC)c3)n(-c3ccccc3)n2)ccc1O` are within 1.5-fold of each other in IC50: 7.7 µM for the first, 6.3 µM for the second.

`COc1cc(/C=C/c2cc(/C=C/c3ccc(O)c(OC)c3)n(-c3ccc(C)cc3)n2)ccc1O` and `COc1cc(/C=C/c2cc(/C=C/c3ccc(O)c(OC)c3)n(-c3ccc(C(C)C)cc3)n2)ccc1O` are within 1.5-fold of each other in IC50: 6 µM for the first, 4.7 µM for the second.

First: COc1cc(/C=C/c2cc(/C=C/c3ccc(O)c(OC)c3)n(-c3cccc([N+](=O)[O-])c3)n2)ccc1O
Second: COc1cc(/C=C/c2cc(/C=C/c3ccc(O)c(OC)c3)n(-c3ccc([N+](=O)[O-])cc3)n2)ccc1O
The IC50 of the first is 2.3-fold higher: 8.1 µM for the first, 3.5 µM for the second.

First: COc1cc(/C=C/c2cc(/C=C/c3ccc(O)c(OC)c3)n(CCO)n2)ccc1O
Second: COc1cc(/C=C/c2cc(/C=C/c3ccc(O)c(OC)c3)n(C)n2)ccc1O
The IC50 of the first is 2.2-fold higher: 13.6 µM for the first, 6.3 µM for the second. The second is the more potent here.

`COc1cc(/C=C/c2cc(/C=C/c3ccc(OCC(=O)O)c(OC)c3)on2)ccc1OCC(=O)O` and `COc1cc(/C=C/c2cc(/C=C/c3ccc(OCC(=O)OC(C)(C)C)c(OC)c3)on2)ccc1OCC(=O)OC(C)(C)C` cannot be ordered by IC50: > 40 µM for the first, > 40 µM for the second.

`COc1cc(/C=C/c2cc(/C=C/c3ccc(O)c(OC)c3)on2)ccc1O` and `COc1cc(/C=C/c2cc(/C=C/c3ccc(O)c(OC)c3)[nH]n2)ccc1O` [CURCUMIN PYRAZOLE] are within 1.5-fold of each other in IC50: 6.1 µM for the first, 5.2 µM for the second.

Compared with `COc1cc(/C=C/C(=O)CC(=O)/C=C/c2ccc(O)c(OC)c2)ccc1O` [CURCUMIN], `COc1cc(/C=C/c2cc(/C=C/c3ccc(O)c(OC)c3)n(-c3cc(Cl)cc(Cl)c3)n2)ccc1O` is lower in IC50: > 20 µM for the first, 3.3 µM for the second. The second is the more potent here.

Work on `COc1cc(/C=C/c2cc(/C=C/c3ccc(O)c(OC)c3)n(-c3ccc(Cl)nn3)n2)ccc1O` yielded an IC50 of 3.4 µM.

target: T2, Amyloid-beta precursor protein; test: Inhibition of amyloid beta 42 transfected in human H4 cells incubated for 20 to 24 hrs by LPECL assay; type: cell-based

`COc1cc(/C=C/c2cc(/C=C/c3ccc(O)c(OC)c3)n(Cc3ccccc3)n2)ccc1O` and `COc1cc(/C=C/c2cc(/C=C/c3ccc(O)c(OC)c3)n(-c3ccccc3)n2)ccc1O` cannot be ordered by IC50: > 1 µM for the first, > 1 µM for the second.

`COc1cc(/C=C/c2cc(/C=C/c3ccc(O)c(OC)c3)n(-c3ccc(C)cc3)n2)ccc1O` and `COc1cc(/C=C/c2cc(/C=C/c3ccc(O)c(OC)c3)n(-c3ccc(C(C)C)cc3)n2)ccc1O` cannot be ordered by IC50: > 1 µM for the first, > 1 µM for the second.

`COc1cc(/C=C/c2cc(/C=C/c3ccc(OCC(=O)O)c(OC)c3)on2)ccc1OCC(=O)O` and `COc1cc(/C=C/c2cc(/C=C/c3ccc(OCC(=O)OC(C)(C)C)c(OC)c3)on2)ccc1OCC(=O)OC(C)(C)C` cannot be ordered by IC50: > 1 µM for the first, > 1 µM for the second.

Compared with `COc1cc(/C=C/c2cc(/C=C/c3ccc(O)c(OC)c3)[nH]n2)ccc1O` [CURCUMIN PYRAZOLE], `COc1cc(/C=C/c2cc(/C=C/c3ccc(O)c(OC)c3)n(-c3ccc(Cl)nn3)n2)ccc1O` is higher in IC50: 0.476 µM for the first, > 1 µM for the second. The first is the more potent here.

For `COc1cc(/C=C/c2cc(/C=C/c3ccc(O)c(OC)c3)n(-c3ccc([N+](=O)[O-])cc3)n2)ccc1O`, the IC50 was > 1 µM.
